Data reported in patent publication US6660300B1, “Method of use of a biphasic controlled release delivery system for high solubility pharmaceuticals and method” (Bristol-Myers Squibb Co., priority 1998, dated 2003).
Counter-ions that a name gives are not always drawn.

Tests used:
[1] = compaction susceptibility
[2] = hygroscopicity at 95% relative humidity/25° C.
[3] = cited from earlier work

| compaction susceptibility [1] | hygroscopicity, moisture uptake ([2]; at 6 hours) | hygroscopicity, moisture uptake ([2]; at 30 minutes) | Compound | area under the plasma concentration-time profile, jejunum compared with ileum ([3]; drug perfused into jejunum versus ileum) | drug in plasma ([3]; drug perfused into the colon) |
| --- | --- | --- | --- | --- | --- |
| low | less than 7% |  | CN(C)C(=N)N=C(N)N [metformin (2:1) fumarate, Metformin (2:1) Fumarate] |  |  |
| low |  | less than 1% | CN(C)C(=N)NC(=N)N [metformin (2:1) succinate, Metformin (2:1) Succinate] |  |  |
|  |  |  | CN(C)C(=N)N=C(N)N [metformin] | 2.5 fold | not detectable |
